What was measured:
Assay in all cases: relative viability (nuclei count vs DMSO), 5 days (fraction); higher = more cells survive
CAP-232 + Foretinib = compound: C[C@H]([C@@H](C(=O)N)NC(=O)[C@@H]1CSSC[C@@H](C(=O)N[C@H](C(=O)N[C@@H](C(=O)N[C@H](C(=O)N1)CCCCN)CC2=CNC3=CC=CC=C32)CC4=CC=C(C=C4)O)NC(=O)[C@@H](CC5=CC=CC=C5)N)O [CAP-232] + COc1cc2c(Oc3ccc(NC(=O)C4(C(=O)Nc5ccc(F)cc5)CC4)cc3F)ccnc2cc1OCCCN1CCOCC1 [Foretinib] (partner 0.25 µM)
Outline: (§1)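 The day after seeding in 1536-well plates, lung cancer cell lines were treated by pin tool with a single drug, or with a fixed anchor-drug dose together with five library-drug doses (not always all listed) in √10 steps. After 5 days, a combined fix-and-stain solution (final 0.05% Triton X-100, 1% formaldehyde, 1 ug/ml Hoechst) was added. Nuclei counted on 4× images gave relative viability as treated counts over vehicle counts, reported as the median of duplicate plates.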

CAP-232 + Trametinib = compound: C[C@H]([C@@H](C(=O)N)NC(=O)[C@@H]1CSSC[C@@H](C(=O)N[C@H](C(=O)N[C@@H](C(=O)N[C@H](C(=O)N1)CCCCN)CC2=CNC3=CC=CC=C32)CC4=CC=C(C=C4)O)NC(=O)[C@@H](CC5=CC=CC=C5)N)O [CAP-232] + CC(=O)Nc1cccc(-n2c(=O)n(C3CC3)c(=O)c3c(Nc4ccc(I)cc4F)n(C)c(=O)c(C)c32)c1 [Trametinib] (partner 0.02 µM)
Outline: as §1

CAP-232 + Navitoclax = compound: C[C@H]([C@@H](C(=O)N)NC(=O)[C@@H]1CSSC[C@@H](C(=O)N[C@H](C(=O)N[C@@H](C(=O)N[C@H](C(=O)N1)CCCCN)CC2=CNC3=CC=CC=C32)CC4=CC=C(C=C4)O)NC(=O)[C@@H](CC5=CC=CC=C5)N)O [CAP-232] + CC1(C)CCC(c2ccc(Cl)cc2)=C(CN2CCN(c3ccc(C(=O)NS(=O)(=O)c4ccc(N[C@H](CCN5CCOCC5)CSc5ccccc5)c(S(=O)(=O)C(F)(F)F)c4)cc3)CC2)C1 [Navitoclax] (partner 0.5 µM)
Outline: as §1

CAP-232 + Lapatinib = compound: C[C@H]([C@@H](C(=O)N)NC(=O)[C@@H]1CSSC[C@@H](C(=O)N[C@H](C(=O)N[C@@H](C(=O)N[C@H](C(=O)N1)CCCCN)CC2=CNC3=CC=CC=C32)CC4=CC=C(C=C4)O)NC(=O)[C@@H](CC5=CC=CC=C5)N)O [CAP-232] + CS(=O)(=O)CCNCc1ccc(-c2ccc3ncnc(Nc4ccc(OCc5cccc(F)c5)c(Cl)c4)c3c2)o1 [Lapatinib] (partner 2 µM)
Outline: as §1

CAP-232 + Dasatinib = compound: C[C@H]([C@@H](C(=O)N)NC(=O)[C@@H]1CSSC[C@@H](C(=O)N[C@H](C(=O)N[C@@H](C(=O)N[C@H](C(=O)N1)CCCCN)CC2=CNC3=CC=CC=C32)CC4=CC=C(C=C4)O)NC(=O)[C@@H](CC5=CC=CC=C5)N)O [CAP-232] + Cc1nc(Nc2ncc(C(=O)Nc3c(C)cccc3Cl)s2)cc(N2CCN(CCO)CC2)n1 [Dasatinib] (partner 0.075 µM)
Outline: as §1

Cell Line | relative viability (CAP-232 + Foretinib; first compound 0.4 µM) | relative viability (CAP-232 + Foretinib; first compound 1.265 µM) | relative viability (CAP-232 + Foretinib; first compound 4 µM) | relative viability (CAP-232 + Foretinib; first compound 12.65 µM) | relative viability (CAP-232 + Trametinib; first compound 0.4 µM) | relative viability (CAP-232 + Trametinib; first compound 1.265 µM) | relative viability (CAP-232 + Trametinib; first compound 4 µM) | relative viability (CAP-232 + Trametinib; first compound 12.65 µM) | relative viability (CAP-232 + Navitoclax; first compound 0.4 µM) | relative viability (CAP-232 + Navitoclax; first compound 1.265 µM) | relative viability (CAP-232 + Navitoclax; first compound 4 µM) | relative viability (CAP-232 + Navitoclax; first compound 12.65 µM) | relative viability (CAP-232 + Lapatinib; first compound 0.4 µM) | relative viability (CAP-232 + Lapatinib; first compound 1.265 µM) | relative viability (CAP-232 + Lapatinib; first compound 4 µM) | relative viability (CAP-232 + Lapatinib; first compound 12.65 µM) | relative viability (CAP-232 + Dasatinib; first compound 0.4 µM) | relative viability (CAP-232 + Dasatinib; first compound 1.265 µM) | relative viability (CAP-232 + Dasatinib; first compound 4 µM) | relative viability (CAP-232 + Dasatinib; first compound 12.65 µM)
NCI-H1355 | 1.07 | 1.04 | 0.945 | 0.908 | 0.437 | 0.434 | 0.456 | 0.342 | 0.96 | 0.921 | 1.14 | 0.966 | 1.11 | 1.06 | 1.19 | 1.01 | 0.847 | 0.736 | 0.618 | 0.5
NCI-H1395 | 0.971 | 0.997 | 0.854 | 1.11 | 1.17 | – | 1.06 | 1.1 | 1.14 | 1 | 1.07 | 0.927 | 1.01 | 0.933 | 1.09 | 0.911 | 0.413 | 0.445 | 0.426 | 0.388
NCI-H1437 | 1.26 | 1.27 | 1.34 | 1.2 | 0.445 | 0.515 | 0.617 | 0.458 | 1.12 | 1.07 | 1.15 | 0.862 | 0.806 | 0.853 | 0.795 | 0.583 | 0.547 | 0.343 | 0.358 | 0.416
NCI-H1650 | 1.07 | 1.11 | 1.25 | 0.542 | 0.631 | 0.557 | 0.54 | 0.215 | 1.34 | 1.08 | 1.36 | 0.478 | 0.737 | 0.788 | 0.966 | 0.214 | 0.344 | 0.27 | 0.282 | 0.231
NCI-H1651 | 0.709 | 0.913 | 0.843 | 0.485 | 0.902 | 0.803 | 0.836 | 0.784 | 1.02 | 0.969 | 1.08 | 0.535 | 0.944 | 0.834 | 0.913 | 0.484 | 0.357 | 0.395 | 0.465 | 0.33
NCI-H1666 | 0.946 | 0.989 | 0.892 | 0.821 | 0.699 | 0.859 | 0.924 | 0.734 | 0.89 | – | 1.08 | 0.931 | 0.687 | – | 0.65 | 0.378 | 0.904 | 0.757 | 0.893 | 0.678
NCI-H1734 | 0.883 | 0.863 | 0.971 | 0.697 | 0.506 | 0.656 | 0.645 | 0.504 | 0.778 | 0.849 | 0.889 | 0.767 | 1 | 1 | 0.95 | 0.73 | 0.45 | 0.459 | 0.461 | 0.446
NCI-H1755 | 0.927 | 0.883 | 0.934 | 0.815 | 0.765 | 0.724 | 0.792 | 0.771 | 0.6 | 1.1 | 1.1 | 0.949 | 1.13 | 0.984 | 1.23 | 1.02 | 0.358 | 0.461 | 0.48 | 0.372
NCI-H1793 | 0.678 | 0.761 | 0.639 | 0.725 | 0.342 | 0.396 | 0.356 | 0.493 | 0.412 | 0.346 | 0.329 | 0.361 | 0.563 | 0.625 | 0.75 | 0.745 | 0.382 | 0.365 | 0.393 | 0.367
NCI-H1915 | 1.11 | 1.11 | 1.11 | 1.09 | 0.207 | 0.307 | 0.291 | 0.371 | 0.825 | 0.75 | 0.771 | 0.766 | 1.04 | 0.957 | 1.04 | 0.982 | 0.326 | 0.31 | 0.303 | 0.287
NCI-H1944 | 0.849 | 0.862 | 0.906 | 0.882 | 0.353 | 0.437 | 0.404 | 0.422 | 1.06 | 1.01 | 1.04 | 0.98 | 0.942 | 0.729 | 0.998 | 0.773 | 0.215 | 0.197 | 0.21 | 0.182
NCI-H1975 | 0.931 | 0.915 | 1.06 | 0.474 | 0.368 | 0.262 | 0.743 | 0.225 | 1.24 | 1.1 | 1.28 | 0.853 | 1.03 | 0.867 | 1.11 | 0.583 | 0.513 | 0.319 | 0.468 | 0.21
NCI-H1993 | 0.804 | 0.775 | 0.829 | 0.757 | 0.443 | 0.491 | 0.589 | 0.429 | 0.961 | 0.864 | 1.15 | 0.907 | 0.877 | 0.791 | 0.915 | 0.673 | 0.619 | 0.539 | 0.682 | 0.558
NCI-H2009 | 1.23 | 1.17 | 1.21 | 1.07 | 0.237 | 0.251 | 0.247 | 0.301 | 1.15 | 1.14 | 1.13 | 1.04 | 1.02 | 0.896 | 0.913 | 0.848 | 0.288 | 0.278 | 0.273 | 0.195
